Read-outs that look alike come from different tables or passages of the source.
What was measured:
PSA = assay: Prostate-specific antigen (PSA) assay, secreted PSA from the eGFP assay plates; assay type: cell-based, human
Experimental: 3. Prostate-specific antigen (PSA) assay: The evaluation of PSA levels secreted into the media was performed in parallel to the eGFP assay using the same plates. After cells were incubated for 3 days, 150 μl of the media was taken from each well, and added to 150 μl of PBS.

androgen receptor (AR) = biological target: T1, androgen receptor (AR) (Homo sapiens, UniProt P10275, T878A); assay: eGFP cellular AR transcription assay (LNCaP eGFP cells, LN-ARR2PB-eGFP); settings: for inhibition at 3 µM: LNCaP, read-out: % Inhibition (3 μM)
T1 sequence (P10275 1-920 T878A): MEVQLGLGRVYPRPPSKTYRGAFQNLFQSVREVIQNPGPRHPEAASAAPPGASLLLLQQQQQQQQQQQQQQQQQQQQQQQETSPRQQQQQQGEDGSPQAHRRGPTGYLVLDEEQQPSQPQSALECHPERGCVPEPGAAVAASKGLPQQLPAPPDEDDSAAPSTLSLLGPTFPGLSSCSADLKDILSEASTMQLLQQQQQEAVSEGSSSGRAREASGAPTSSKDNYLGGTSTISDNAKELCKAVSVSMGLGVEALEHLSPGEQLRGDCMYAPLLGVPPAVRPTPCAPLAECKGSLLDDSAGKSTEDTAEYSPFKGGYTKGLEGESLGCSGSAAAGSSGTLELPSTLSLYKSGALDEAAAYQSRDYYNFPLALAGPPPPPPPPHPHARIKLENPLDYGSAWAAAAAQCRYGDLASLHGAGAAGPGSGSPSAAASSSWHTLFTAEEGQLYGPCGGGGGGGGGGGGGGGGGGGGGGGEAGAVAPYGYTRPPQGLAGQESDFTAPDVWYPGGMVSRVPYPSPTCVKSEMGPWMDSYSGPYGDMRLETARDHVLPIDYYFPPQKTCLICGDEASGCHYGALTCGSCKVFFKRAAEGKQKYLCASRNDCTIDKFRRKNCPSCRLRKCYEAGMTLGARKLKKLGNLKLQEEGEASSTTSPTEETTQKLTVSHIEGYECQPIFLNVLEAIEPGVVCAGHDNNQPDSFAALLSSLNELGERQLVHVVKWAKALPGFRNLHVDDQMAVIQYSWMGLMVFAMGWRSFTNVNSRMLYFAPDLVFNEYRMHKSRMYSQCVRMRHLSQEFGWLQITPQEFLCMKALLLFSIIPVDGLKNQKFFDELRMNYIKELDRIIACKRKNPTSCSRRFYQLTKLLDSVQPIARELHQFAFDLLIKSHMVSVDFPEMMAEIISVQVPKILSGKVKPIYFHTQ

[1] = eGFP IC50 (μM), LNCaP eGFP cells

## CCOC(=O)c1c(C)[nH]c(C(=O)N[C@@H]2CCCc3ccccc32)c1C [Compound 14002]
PSA; Homo sapiens, secreted PSA
  IC50: 3540 nM
Androgen receptor (AR); [1]
  IC50: 11.8 µM

## CC(=O)Nc1cccc(NC(=O)c2ccc(C)c(-n3cccc3)c2)c1 [Compound 14010]
PSA; Homo sapiens, secreted PSA
  IC50: 19300 nM
Androgen receptor (AR); [1]
  IC50: 32.5 µM

## c1ccc(-c2ccc(N3CCOCC3)s2)cc1 [Compound 14103]
PSA; Homo sapiens, Series 1
  IC50: 511 nM
Androgen receptor (AR)
  inhibition at 3 µM: 100%
Androgen receptor (AR); eGFP IC50 (μM), Series 1
  IC50: 0.522 µM

## N#Cc1ccc(-c2ccc(N3CCOCC3)s2)cc1 [Compound 14117]
PSA; Homo sapiens, Series 1
  IC50: 885 nM
Androgen receptor (AR)
  inhibition at 3 µM: 111%
Androgen receptor (AR); eGFP IC50 (μM), Series 1
  IC50: 1.43 µM

## c1ccc(-c2csc(-c3ccccn3)n2)cc1 [Compound 14130]
PSA; Series 1
  IC50: 8540 nM
Androgen receptor (AR); read-out: eGFP IC50
  IC50: 7.4 µM

## c1cc(-c2csc(N3CCCCC3)n2)cs1 [Compound 14131]
PSA; Homo sapiens, Series 1
  IC50: 540 nM
Androgen receptor (AR)
  inhibition at 3 µM: 117%
Androgen receptor (AR); eGFP IC50 (μM), Series 1
  IC50: 0.82 µM

## Cc1[nH]c2ccccc2c1-c1csc(N2CCOCC2)n1 [Compound 14135]
PSA; Homo sapiens, Series 1
  IC50: 7800 nM
Androgen receptor (AR)
  inhibition at 3 µM: 64%
Androgen receptor (AR); eGFP IC50 (μM), Series 1
  IC50: 6.89 µM

## c1ccc2c(-c3nc(-c4ccncc4)cs3)c[nH]c2c1 [Compound 14150]
PSA; Homo sapiens, Series 1
  IC50: 1290 nM
Androgen receptor (AR)
  inhibition at 3 µM: 133%
Androgen receptor (AR); eGFP IC50 (μM), Series 1
  IC50: 1.44 µM

## c1ccc2cc(-c3cscn3)ccc2c1 [Compound 14193]
PSA; Homo sapiens, secreted PSA
  IC50: 640 nM
Androgen receptor (AR); [1]
  IC50: 1.3 µM

## CNc1nc(-c2ccc3ccccc3c2)cs1 [Compound 14203]
PSA; Homo sapiens, secreted PSA
  IC50: 3910 nM
Androgen receptor (AR)
  inhibition at 3 µM: 91.5%
Androgen receptor (AR); [1]
  IC50: 3.17 µM

## Nc1nc(-c2ccc3ccccc3c2)cs1 [Compound 14204]
PSA; Homo sapiens, secreted PSA
  IC50: 10600 nM
Androgen receptor (AR)
  inhibition at 3 µM: 67.2%
Androgen receptor (AR); [1]
  IC50: 9.16 µM

## c1ccc(-c2csc(N3CCCCC3)n2)cc1 [Compound 14233]
PSA; Homo sapiens, Series 1
  IC50: 690 nM
Androgen receptor (AR); eGFP IC50 (μM), Series 1
  IC50: 1.02 µM

## FC(F)(F)C1CN(c2nc(-c3ccccc3)cs2)CCO1 (centres unmarked) [Compound 14250]
PSA; Series 1
  IC50: 160 nM
Androgen receptor (AR); read-out: eGFP IC50
  IC50: 1.64 µM

## Fc1ccc(-c2csc(N3CCOCC3)n2)cc1 [Compound 14255]
PSA; Homo sapiens, Series 1
  IC50: 410 nM
Androgen receptor (AR)
  inhibition at 3 µM: 44.9%
Androgen receptor (AR); eGFP IC50 (μM), Series 1
  IC50: 0.66 µM

## COc1ccccc1-c1csc(N2CCOCC2)n1 [Compound 14257]
PSA; Homo sapiens, Series 1
  IC50: 830 nM
Androgen receptor (AR)
  inhibition at 3 µM: 118%
Androgen receptor (AR); eGFP IC50 (μM), Series 1
  IC50: 0.22 µM

## Fc1ccc(F)c(-c2csc(N3CCOCC3)n2)c1 [Compound 14262]
PSA; Series 1
  IC50: 10400 nM
Androgen receptor (AR)
  % Inhibition (3 μM): 96.6%

## Clc1ccc(-c2csc(N3CCOCC3)n2)c(Cl)c1 [Compound 14263]
PSA; Series 1
  IC50: 1320 nM
Androgen receptor (AR); read-out: eGFP IC50
  IC50: 1.66 µM

## Fc1ccc(-c2csc(N3CCOCC3)n2)cc1F [Compound 14264]
PSA; Homo sapiens, Series 1
  IC50: 110 nM
Androgen receptor (AR)
  inhibition at 3 µM: 115%
Androgen receptor (AR); eGFP IC50 (μM), Series 1
  IC50: 0.24 µM

## Clc1ccc(-c2csc(N3CCOCC3)n2)cc1Cl [Compound 14266]
PSA; Series 1
  IC50: 2960 nM
Androgen receptor (AR)
  % Inhibition (3 μM): 82.19%
Androgen receptor (AR); read-out: eGFP IC50
  IC50: 3.31 µM

## Nc1ccccc1-c1csc(N2CCOCC2)n1 [Compound 14273]
PSA; Homo sapiens, Series 1
  IC50: 2030 nM
Androgen receptor (AR)
  inhibition at 3 µM: 73.4%
Androgen receptor (AR); eGFP IC50 (μM), Series 1
  IC50: 1.41 µM

## CCc1sc(N2CCOCC2)nc1-c1ccccc1 [Compound 14285]
PSA; Series 1
  IC50: 8430 nM
Androgen receptor (AR)
  % Inhibition (3 μM): 52.34%
Androgen receptor (AR); read-out: eGFP IC50
  IC50: 5.85 µM

## FC(F)(F)c1cccc(-c2csc(N3CCOCC3)n2)c1 [Compound 14292]
PSA; Homo sapiens, Series 1
  IC50: 580 nM
Androgen receptor (AR); eGFP IC50 (μM), Series 1
  IC50: 0.61 µM

## Cc1ccc(C)c(-c2csc(N3CCOCC3)n2)c1 [Compound 14293]
PSA; Homo sapiens, Series 1
  IC50: 520 nM
Androgen receptor (AR); eGFP IC50 (μM), Series 1
  IC50: 0.62 µM

## Oc1cccc(-c2ccc3ccccc3n2)c1 [Compound 14300]
PSA; Homo sapiens, secreted PSA
  IC50: 1040 nM
Androgen receptor (AR); [1]
  IC50: 0.23 µM

## Oc1cccc(N2Cc3ccccc3C2)c1 [Compound 14309]
PSA; Homo sapiens, secreted PSA
  IC50: 500 nM
Androgen receptor (AR); [1]
  IC50: 0.75 µM

## Fc1ccc(-c2csc(-c3ccncc3)n2)cc1 [Compound 14315]
PSA; Homo sapiens, Series 1
  IC50: 632 nM
Androgen receptor (AR)
  inhibition at 3 µM: 83.3%
Androgen receptor (AR); eGFP IC50 (μM), Series 1
  IC50: 1.19 µM

## c1ccc2nc(-c3ccncc3)ccc2c1 [Compound 14320]
PSA; Homo sapiens, secreted PSA
  IC50: 2260 nM
Androgen receptor (AR)
  inhibition at 3 µM: 62%
Androgen receptor (AR); [1]
  IC50: 4.2 µM

## Cc1ccc2sc(N3CCOCC3)nc2c1C [Compound 14332]
PSA; Homo sapiens, secreted PSA
  IC50: 58 nM
Androgen receptor (AR)
  inhibition at 3 µM: 91.7%
Androgen receptor (AR); [1]
  IC50: 0.068 µM

## c1ccc(-c2csc(-c3ccncc3)n2)cc1 [Compound 14352]
PSA; Series 1
  IC50: 630 nM
Androgen receptor (AR); read-out: eGFP IC50
  IC50: 1.19 µM

## Oc1cc(F)ccc1-c1csc(N2CCOCC2)n1 [Compound 14364]
PSA; Series 1
  IC50: 810 nM
Androgen receptor (AR)
  % Inhibition (3 μM): 91.26%
Androgen receptor (AR); read-out: eGFP IC50
  IC50: 1.22 µM

## Oc1c(F)cccc1-c1csc(N2CCOCC2)n1 [Compound 14365]
PSA; Homo sapiens, Series 1
  IC50: 160 nM
Androgen receptor (AR)
  inhibition at 3 µM: 97.4%
Androgen receptor (AR); eGFP IC50 (μM), Series 1
  IC50: 0.27 µM

## COc1cc(F)ccc1-c1csc(N2CCOCC2)n1 [Compound 14367]
PSA; Homo sapiens, Series 1
  IC50: 230 nM
Androgen receptor (AR)
  inhibition at 3 µM: 103%
Androgen receptor (AR); eGFP IC50 (μM), Series 1
  IC50: 0.3 µM

Reference: US10011573B2, “Human androgen receptor DNA-binding domain (DBD) compounds as therapeutics and methods for their use” (The University of British Columbia, priority 2014, dated 2018)
